Here are results for 44 compounds from US8741931B2, “Kinase inhibitors” (priority 2007, dated 2014).

Type in all cases: biochemical
One test deals with PKC theta kinase (Homo sapiens, UniProt Q04759). Briefly: PKC Theta I (coupled enzyme assay, absorbance at 340 nm). The conditions noted are these: 240 μM ATP, 18 nM PKC theta, absorbance read out. The protocol:
An assay buffer solution was prepared which consisted of 100 mM HEPES (pH 7.5), 10 mM MgCl2, 25 mM NaCl, 0.1 mM EDTA and 0.01% Brij. […] To 60 μL of this enzyme buffer, in a 384 well plate, was added 2 μL of VRT stock solution in DMSO. The mixture was allowed to equilibrate for 10 mins at 30° C. […] Ki values were calculated from initial rate data by non-linear regression using the Prism software package (Prism 4.0a, Graphpad Software, San Diego, Calif.).

For another test, the target named is PKC alpha kinase (Homo sapiens, UniProt P17252). Briefly: PKC Alpha (coupled enzyme assay). The conditions noted are these: 130 μM ATP, 4.5 nM PKC alpha. The protocol:
An assay buffer solution was prepared which consisted of 100 mM HEPES (pH 7.5), 10 mM MgCl2, 25 mM NaCl, 0.1 mM EDTA, 100 μM CaCl2 and 0.01% Brij. […] To 16 μL of this enzyme buffer, in a 384 well plate, was added 1 μL of VRT stock solution in DMSO. The mixture was allowed to equilibrate for 10 mins at 30° C. […] Ki values were calculated from initial rate data by non-linear regression using the Prism software package (Prism 4.0a, Graphpad Software, San Diego, Calif.).

The next test deals with PKC delta kinase (Homo sapiens, UniProt Q05655). Briefly: PKC Delta (coupled enzyme assay). The conditions noted are these: 150 μM ATP, 46 nM PKC delta; read-out: Ki PKC delta. As for the experimental part:
An assay buffer solution was prepared which consisted of 100 mM HEPES (pH 7.5), 10 mM MgCl2, 25 mM NaCl, 0.1 mM EDTA and 0.01% Brij. […] To 16 μL of this enzyme buffer, in a 384 well plate, was added 1 μL of VRT stock solution in DMSO. The mixture was allowed to equilibrate for 10 mins at 30° C. […] Ki values were calculated from initial rate data by non-linear regression using the Prism software package (Prism 4.0a, Graphpad Software, San Diego, Calif.).

SMILES strings stand for the structures.

Chain of PKC theta kinase (Q04759 whole entry): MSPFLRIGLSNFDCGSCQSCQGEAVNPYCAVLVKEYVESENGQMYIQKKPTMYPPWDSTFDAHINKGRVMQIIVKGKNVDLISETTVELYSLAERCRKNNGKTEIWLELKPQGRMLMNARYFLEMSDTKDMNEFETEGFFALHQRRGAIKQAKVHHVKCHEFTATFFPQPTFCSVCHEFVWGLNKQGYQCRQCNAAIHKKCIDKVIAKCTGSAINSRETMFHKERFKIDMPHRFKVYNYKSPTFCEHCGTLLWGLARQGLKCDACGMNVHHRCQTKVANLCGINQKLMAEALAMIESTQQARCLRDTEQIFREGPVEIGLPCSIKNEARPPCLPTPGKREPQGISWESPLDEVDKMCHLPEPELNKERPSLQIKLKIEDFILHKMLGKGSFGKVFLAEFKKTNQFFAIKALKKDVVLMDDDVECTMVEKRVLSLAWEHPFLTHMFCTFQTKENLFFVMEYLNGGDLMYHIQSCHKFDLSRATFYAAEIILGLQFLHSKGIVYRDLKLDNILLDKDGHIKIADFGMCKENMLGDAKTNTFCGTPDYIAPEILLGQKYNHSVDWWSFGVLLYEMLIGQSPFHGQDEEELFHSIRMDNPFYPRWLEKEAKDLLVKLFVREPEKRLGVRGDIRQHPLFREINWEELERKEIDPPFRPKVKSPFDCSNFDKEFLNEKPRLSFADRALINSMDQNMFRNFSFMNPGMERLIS
Chain of PKC delta kinase (Q05655 whole entry): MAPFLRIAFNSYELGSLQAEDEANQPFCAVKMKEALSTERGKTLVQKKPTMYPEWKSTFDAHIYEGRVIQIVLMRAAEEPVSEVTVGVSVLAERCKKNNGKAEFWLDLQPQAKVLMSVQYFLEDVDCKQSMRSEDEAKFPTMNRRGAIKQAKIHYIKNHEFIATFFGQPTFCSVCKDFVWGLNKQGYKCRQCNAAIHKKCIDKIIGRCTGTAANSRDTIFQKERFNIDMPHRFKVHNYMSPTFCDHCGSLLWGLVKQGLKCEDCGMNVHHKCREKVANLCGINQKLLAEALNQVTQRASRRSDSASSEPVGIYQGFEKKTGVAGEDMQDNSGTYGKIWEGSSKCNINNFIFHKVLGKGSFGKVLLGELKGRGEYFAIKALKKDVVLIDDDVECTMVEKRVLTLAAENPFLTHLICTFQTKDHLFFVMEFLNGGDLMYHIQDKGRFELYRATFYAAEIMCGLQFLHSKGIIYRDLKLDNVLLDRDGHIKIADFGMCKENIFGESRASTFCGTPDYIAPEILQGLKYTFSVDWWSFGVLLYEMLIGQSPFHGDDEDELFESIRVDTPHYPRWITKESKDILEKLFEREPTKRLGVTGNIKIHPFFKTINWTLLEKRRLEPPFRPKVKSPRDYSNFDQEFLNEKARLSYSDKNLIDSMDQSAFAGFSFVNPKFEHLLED

For the compound `Nc1ncc(Br)cc1C(=O)c1cccc(N2CCCN(Cc3ccccc3)CC2)n1` [compound 99], the Ki on PKC theta kinase fell in the range of 500 to 2800 nM.

For `CC(C)(C)N1CCN(c2cccc(C(=O)c3cccnc3N)n2)CC1` [compound 88], on PKC theta kinase, the Ki is 500 to 2800 nM.

In turn, `Cc1ccc(CC(=O)N2CCCN(c3cccc(C(=O)c4cc(Br)cnc4N)n3)CC2)cc1` [compound 74] returned a Ki on PKC theta kinase of 500 to 2800 nM.

As to `CN(C)C1CCN(c2cccc(C(=O)c3cccnc3N)n2)CC1` [compound 137], the Ki at PKC theta kinase is 500 to 2800 nM.

Turning to `CC(C)(C)OC(=O)NC1CCN(c2cccc(C(=O)c3cc(Br)cnc3N)n2)CC1` [compound 135], the Ki on PKC theta kinase fell in the range of 500 to 2800 nM.

For `CC(C)C[C@H]1CN(c2ccc(C#CC(C)(C)O)c(C(=O)c3cccnc3N)n2)CCN1` [compound 467], the Ki on PKC theta kinase was 500 to 2800 nM; at PKC alpha kinase it was > 2800 nM; on PKC delta kinase, > 2800 nM.

In turn, `Cc1ccsc1CN1CCCN(c2cccc(C(=O)c3cc(Br)cnc3N)n2)CC1` [compound 139] yielded a Ki at PKC theta kinase of 500 to 2800 nM.

Regarding `Nc1ncccc1C(=O)c1nc(OCC2(N)CCCC2)ccc1C(F)(F)F` [compound 438], the Ki at PKC theta kinase is 500 to 2800 nM; on PKC alpha kinase, > 2800 nM; at PKC delta kinase, 500 to 2800 nM.

Consider `Cc1ccoc1C(=O)N1CCCN(c2cccc(C(=O)c3cccnc3N)n2)CC1` [compound 91], for which the Ki on PKC theta kinase fell in the range of 500 to 2800 nM.

For `CC(C)C[C@H]1CN(c2ccc(C(F)(F)F)c(C(=O)c3cccnc3N)n2)C[C@H](C)N1` [compound 483], the Ki at PKC alpha kinase and on PKC delta kinase was 500 to 2800 nM each time.

Take `CCC[C@H]1CN(c2ccc(C(F)(F)F)c(C(=O)c3cccnc3N)n2)C[C@@H](c2ccccc2)N1` [compound 481]: the Ki is 500 to 2800 nM at PKC theta kinase, > 2800 nM at PKC alpha kinase and > 2800 nM on PKC delta kinase.

For the compound `CC(C)(C)OC(=O)N1CCCN(c2nccc(C(=O)c3cccnc3N)n2)CC1` [compound 110], the Ki at PKC theta kinase was in the range of 500 to 2800 nM.

For `CC[C@H]1CN(c2ccc(C(F)(F)F)c(C(=O)c3cccnc3N)n2)C[C@H](CC(C)C)N1` [compound 489], the figures for the Ki on PKC theta kinase, at PKC alpha kinase and on PKC delta kinase were 500 to 2800 nM, > 2800 nM and 500 to 2800 nM, respectively.

With `Cc1ccccc1C(=O)N1CCCN(c2cccc(C(=O)c3cccnc3N)n2)CC1` [compound 89], the Ki at PKC alpha kinase was 500 to 2800 nM; at PKC delta kinase it was > 2800 nM.

For `Nc1ncc(Br)cc1C(=O)c1cccc(N2CCCN(CCc3ccccc3)CC2)n1` [compound 114], the Ki at PKC theta kinase was 500 to 2800 nM.

In the case of `Nc1ncc(Br)cc1C(=O)c1cccc(N2CCCN(C(=O)Cc3ccccc3)CC2)n1` [compound 72], the Ki on PKC theta kinase was in the range of 500 to 2800 nM.

For the compound `CC(C)C1OC(=O)N2CCN(c3ccc(C(F)(F)F)c(C(=O)c4cccnc4N)n3)CC12` (centres unmarked) [compound 453], the results for the Ki at PKC theta kinase, at PKC alpha kinase and at PKC delta kinase were 500 to 2800 nM, > 2800 nM and > 2800 nM, respectively.

On to `CC[C@@H]1CN(c2ccc(C(F)(F)F)c(C(=O)c3cccnc3N)n2)C[C@H](C(C)C)N1` [compound 472], for which the values for the Ki on PKC theta kinase, at PKC alpha kinase and on PKC delta kinase were 500 to 2800 nM, > 2800 nM and > 2800 nM, respectively.

In the case of `NCC1CCCC(CNc2ccc(C(F)(F)F)c(C(=O)c3cccnc3N)n2)C1` (centres unmarked) [compound 429], the Ki was > 2800 nM at PKC alpha kinase and 50 to 500 nM at PKC delta kinase.

With `CCC[C@H]1CN(c2ccc(C(F)(F)F)c(C(=O)c3cccnc3N)n2)C[C@H](CC(C)C)N1` [compound 493], the results for the Ki at PKC theta kinase, on PKC alpha kinase and on PKC delta kinase were 500 to 2800 nM, > 2800 nM and 500 to 2800 nM, respectively.

On to `Nc1ncccc1C(=O)c1cccc(N2CCCN(C(=O)c3cccs3)CC2)n1` [compound 90], for which the Ki is 500 to 2800 nM on PKC theta kinase and > 2800 nM at PKC delta kinase.

In the case of `CC(N)(CNc1ccc(C(F)(F)F)c(C(=O)c2cccnc2N)n1)Cc1ccccc1` (centres unmarked) [compound 452], the Ki on PKC alpha kinase lay within 500 to 2800 nM; at PKC delta kinase, 50 to 500 nM.

As for `Nc1ncccc1C(=O)c1cccc(N2CCCN(C(=O)Cc3ccccc3Cl)CC2)n1` [compound 29], on PKC theta kinase, the Ki was in the range of 500 to 2800 nM.

Take `Cc1ccc(-c2ccc(N3CCNC(c4ccccc4)C3)nc2C(=O)c2cccnc2N)o1` (centres unmarked) [compound 469]: the Ki at PKC alpha kinase lay in the range of 500 to 2800 nM; at PKC delta kinase, 50 to 500 nM.

With `NCC1CCC(CNc2ccc(C(F)(F)F)c(C(=O)c3cccnc3N)n2)CC1` (centres unmarked) [compound 451], the Ki on PKC alpha kinase and on PKC delta kinase was > 2800 nM each time.

As for `CC(C)(C)CC(=O)N1CCCN(c2cccc(C(=O)c3cccnc3N)n2)CC1` [compound 26], the Ki on PKC theta kinase was in the range of 500 to 2800 nM.

For the compound `CC#Cc1ccc(N2CCN[C@H](c3ccccc3)C2)nc1C(=O)c1cccnc1N` [compound 465], the Ki at PKC alpha kinase is 500 to 2800 nM; on PKC delta kinase, 50 to 500 nM.

For `Cc1ccc(N2CCCNCC2)nc1C(=O)c1cccnc1N` [compound 209], the Ki at PKC alpha kinase and at PKC delta kinase was 500 to 2800 nM each time.

Compound `Nc1ncccc1C(=O)c1cccc(N2CCCN(C(=O)Cc3cccc(O)c3)CC2)n1` [compound 77] had a Ki on PKC theta kinase of 500 to 2800 nM.

As to `Nc1ncccc1C(=O)c1nc(NCCO)ccc1C(F)(F)F` [compound 423], the Ki on PKC theta kinase was 500 to 2800 nM; on PKC alpha kinase it was > 2800 nM; on PKC delta kinase, > 2800 nM.

For `C=Cc1ccc(N2CCN[C@H](c3ccccc3)C2)nc1C(=O)c1cccnc1N` [compound 445], the Ki on PKC alpha kinase and on PKC delta kinase was 500 to 2800 nM in each case.

For `CC(Nc1ccc(C(F)(F)F)c(C(=O)c2cccnc2N)n1)[C@@H](O)c1ccccc1` (some centres unmarked) [compound 430], the Ki at PKC theta kinase was 500 to 2800 nM; on PKC alpha kinase it was > 2800 nM; on PKC delta kinase, > 2800 nM.

On to `N#CCC(=O)N1CCCN(c2cccc(C(=O)c3cccnc3N)n2)CC1` [compound 22], for which the Ki at PKC theta kinase is 500 to 2800 nM.

For `CC(C)[C@H]1CN(c2ccc(C(F)(F)F)c(C(=O)c3cccnc3N)n2)C[C@@H](c2ccccc2)N1` [compound 449], the Ki at PKC theta kinase is 500 to 2800 nM; at PKC alpha kinase, > 2800 nM; on PKC delta kinase, > 2800 nM.

In the case of `CC(C)C[C@H]1CN(c2cc(C(=O)c3cccnc3N)c(-c3ccco3)cn2)CCN1` [compound 428], the Ki was 500 to 2800 nM on PKC theta kinase, > 2800 nM on PKC alpha kinase and > 2800 nM at PKC delta kinase.

On to `Nc1ncccc1C(=O)c1nc(N2CCNC(C(F)(F)F)C2)ccc1C(F)(F)F` (centres unmarked) [compound 477], for which the values for the Ki at PKC alpha kinase and on PKC delta kinase were > 2800 nM and 50 to 500 nM, respectively.

In the case of `CC(C)(F)CC1CN(c2ccc(C(F)(F)F)c(C(=O)c3cccnc3N)n2)CCN1` (centres unmarked) [compound 464], the Ki is 500 to 2800 nM at PKC alpha kinase and 50 to 500 nM on PKC delta kinase.

Turning to `CN1CCC(N2CCN(c3cccc(C(=O)c4cc(Br)cnc4N)n3)CC2)CC1` [compound 101], the Ki on PKC theta kinase was 500 to 2800 nM.

Consider `C=Cc1cnc(N)c(C(=O)c2nc(N3CCN[C@@H](CC(C)C)C3)ccc2C(F)(F)F)c1` [compound 487], for which the Ki was < 50 nM at PKC alpha kinase and 50 to 500 nM at PKC delta kinase.

As to `CC(C)(C)C1CN(c2ccc(C(F)(F)F)c(C(=O)c3cccnc3N)n2)CCN1` (centres unmarked) [compound 456], the Ki on PKC alpha kinase and on PKC delta kinase was > 2800 nM throughout.

On to `Nc1ncc(Cl)cc1C(=O)c1nc(N2CCNCC2)ccc1C(F)(F)F` [compound 495], for which the results for the Ki on PKC alpha kinase and on PKC delta kinase were < 50 nM and 50 to 500 nM, respectively.

On to `Nc1ncccc1C(=O)c1nc(NCC2CCC(N)CC2)ccc1C(F)(F)F` (centres unmarked) [compound 460], for which the values for the Ki on PKC alpha kinase and on PKC delta kinase were > 2800 nM and 500 to 2800 nM, respectively.

`CC(C)(C)C(=O)N1CCCN(c2cccc(C(=O)c3cc(Br)cnc3N)n2)CC1` [compound 73] came in with a Ki at PKC theta kinase of 500 to 2800 nM.

On to `Nc1ncccc1C(=O)c1nc(OCC(N)C2CCOCC2)ccc1C(F)(F)F` (centres unmarked) [compound 433], for which the Ki on PKC alpha kinase and at PKC delta kinase was > 2800 nM throughout.
